According to ChEMBL document CHEMBL4507294, “Data for DCP probe MSD-CYP11B2” (2021):

Tests used:
[1] = target: Testis-specific serine/threonine-protein kinase 3 (Homo sapiens) (UniProt Q96PN8); conditions: Compound concentration 1000.0 nM
[2] = test system: Mast/stem cell growth factor receptor Kit (Homo sapiens), P10721 [A829P]; conditions: Compound concentration 1000.0 nM
[3] = target: Dual specificity tyrosine-phosphorylation-regulated kinase 1A (Homo sapiens) (UniProt Q13627); conditions: Compound concentration 1000.0 nM
[4] = target: Serine/threonine-protein kinase TAO3 (Homo sapiens) (UniProt Q9H2K8); conditions: Compound concentration 1000.0 nM
[5] = target: Ephrin type-A receptor 5 (Homo sapiens) (UniProt P54756); conditions: Compound concentration 1000.0 nM
[6] = target: Vascular endothelial growth factor receptor 1 (Homo sapiens) (UniProt P17948); conditions: Compound concentration 1000.0 nM
Chain of Vascular endothelial growth factor receptor 1 (Homo sapiens) (P17948 whole entry): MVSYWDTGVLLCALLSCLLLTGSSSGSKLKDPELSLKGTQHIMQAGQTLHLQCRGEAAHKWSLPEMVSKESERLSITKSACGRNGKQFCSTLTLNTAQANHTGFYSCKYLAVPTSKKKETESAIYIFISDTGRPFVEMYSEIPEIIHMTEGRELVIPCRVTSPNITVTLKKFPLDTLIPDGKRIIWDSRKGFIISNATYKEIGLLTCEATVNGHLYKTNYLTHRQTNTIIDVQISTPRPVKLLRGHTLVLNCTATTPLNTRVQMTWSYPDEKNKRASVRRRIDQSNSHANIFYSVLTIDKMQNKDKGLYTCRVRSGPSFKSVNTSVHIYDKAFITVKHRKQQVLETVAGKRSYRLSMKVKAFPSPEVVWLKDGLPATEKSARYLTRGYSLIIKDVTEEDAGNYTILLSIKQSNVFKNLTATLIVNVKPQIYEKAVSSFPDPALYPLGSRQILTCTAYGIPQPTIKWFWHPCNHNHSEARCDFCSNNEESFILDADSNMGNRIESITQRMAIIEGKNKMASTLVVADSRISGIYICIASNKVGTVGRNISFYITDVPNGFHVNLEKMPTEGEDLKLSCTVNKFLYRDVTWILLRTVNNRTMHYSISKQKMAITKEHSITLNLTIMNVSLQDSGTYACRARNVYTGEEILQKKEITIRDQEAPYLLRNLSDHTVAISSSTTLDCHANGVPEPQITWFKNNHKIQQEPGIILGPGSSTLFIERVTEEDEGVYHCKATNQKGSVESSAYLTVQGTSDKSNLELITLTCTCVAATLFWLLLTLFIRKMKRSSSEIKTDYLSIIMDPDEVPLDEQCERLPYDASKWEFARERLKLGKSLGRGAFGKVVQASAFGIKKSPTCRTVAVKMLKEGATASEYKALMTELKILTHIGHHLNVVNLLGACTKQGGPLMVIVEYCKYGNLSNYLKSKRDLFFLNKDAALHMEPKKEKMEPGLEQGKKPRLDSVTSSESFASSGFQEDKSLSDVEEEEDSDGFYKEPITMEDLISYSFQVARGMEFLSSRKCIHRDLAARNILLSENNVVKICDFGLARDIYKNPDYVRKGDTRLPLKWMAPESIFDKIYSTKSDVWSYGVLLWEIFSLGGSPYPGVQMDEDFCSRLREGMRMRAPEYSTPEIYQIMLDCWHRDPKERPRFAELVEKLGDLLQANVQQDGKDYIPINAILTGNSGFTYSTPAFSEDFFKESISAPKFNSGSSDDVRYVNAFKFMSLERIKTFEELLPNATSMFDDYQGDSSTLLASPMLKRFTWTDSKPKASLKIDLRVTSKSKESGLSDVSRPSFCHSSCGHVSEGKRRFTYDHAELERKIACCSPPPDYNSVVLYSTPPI

[7] = test system: Tyrosine-protein kinase ABL1 (Homo sapiens), P00519 [T315I]; conditions: Compound concentration 1000.0 nM
[8] = target: Calcium/calmodulin-dependent protein kinase kinase 2 (Homo sapiens) (UniProt Q96RR4); conditions: Compound concentration 1000.0 nM
[9] = target: Membrane-associated tyrosine- and threonine-specific cdc2-inhibitory kinase (Homo sapiens) (UniProt Q99640); conditions: Compound concentration 1000.0 nM
Chain of Membrane-associated tyrosine- and threonine-specific cdc2-inhibitory kinase (Homo sapiens) (Q99640 whole entry): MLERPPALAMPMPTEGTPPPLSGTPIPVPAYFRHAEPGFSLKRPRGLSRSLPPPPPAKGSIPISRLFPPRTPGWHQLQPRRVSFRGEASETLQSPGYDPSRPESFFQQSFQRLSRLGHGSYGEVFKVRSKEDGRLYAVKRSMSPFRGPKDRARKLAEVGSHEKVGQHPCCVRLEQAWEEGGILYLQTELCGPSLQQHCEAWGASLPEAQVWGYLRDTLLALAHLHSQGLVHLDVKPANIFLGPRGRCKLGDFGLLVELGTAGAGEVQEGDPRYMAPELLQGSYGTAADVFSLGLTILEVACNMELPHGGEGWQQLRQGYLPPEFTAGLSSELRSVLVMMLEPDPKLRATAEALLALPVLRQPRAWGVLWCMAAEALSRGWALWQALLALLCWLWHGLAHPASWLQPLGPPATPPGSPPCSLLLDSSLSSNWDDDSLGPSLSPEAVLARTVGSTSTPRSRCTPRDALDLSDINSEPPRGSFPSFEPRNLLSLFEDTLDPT

[10] = target: Beta-3 adrenergic receptor (Homo sapiens) (UniProt P13945); conditions: Compound concentration 10.0 uM
Chain of Beta-3 adrenergic receptor (Homo sapiens) (P13945 whole entry, looked up): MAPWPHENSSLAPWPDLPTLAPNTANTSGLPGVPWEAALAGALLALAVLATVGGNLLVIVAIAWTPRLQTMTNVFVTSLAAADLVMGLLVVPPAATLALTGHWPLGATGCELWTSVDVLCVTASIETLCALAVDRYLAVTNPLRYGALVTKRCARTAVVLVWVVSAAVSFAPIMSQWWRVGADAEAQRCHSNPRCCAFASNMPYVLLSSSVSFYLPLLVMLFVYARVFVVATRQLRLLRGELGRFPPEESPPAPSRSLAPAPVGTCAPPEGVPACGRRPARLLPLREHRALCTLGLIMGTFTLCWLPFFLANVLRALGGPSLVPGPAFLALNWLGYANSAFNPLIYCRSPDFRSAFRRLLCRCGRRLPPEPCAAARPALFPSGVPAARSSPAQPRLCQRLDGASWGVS

[11] = target: TGF-beta receptor type-2 (Homo sapiens) (UniProt P37173); conditions: Compound concentration 1000.0 nM
[12] = target: cAMP-dependent protein kinase catalytic subunit beta (Homo sapiens) (UniProt P22694); conditions: Compound concentration 1000.0 nM
[13] = target: Serine/threonine-protein kinase BRSK1 (Homo sapiens) (UniProt Q8TDC3); conditions: Compound concentration 1000.0 nM
[14] = target: Tyrosine-protein kinase receptor TYRO3 (Homo sapiens) (UniProt Q06418); conditions: Compound concentration 1000.0 nM
[15] = target: Sigma non-opioid intracellular receptor 1 (Homo sapiens) (UniProt Q99720); conditions: Compound concentration 10.0 uM
[16] = target: Rho-associated protein kinase 2 (Homo sapiens) (UniProt O75116); conditions: Compound concentration 1000.0 nM
[17] = target: Serine/threonine-protein kinase WNK3 (Homo sapiens) (UniProt Q9BYP7); conditions: Compound concentration 1000.0 nM
[18] = target: Serine/threonine-protein kinase 32A (Homo sapiens) (UniProt Q8WU08); conditions: Compound concentration 1000.0 nM
[19] = target: Microtubule-associated serine/threonine-protein kinase 1 (Homo sapiens) (UniProt Q9Y2H9); conditions: Compound concentration 1000.0 nM
[20] = test system: ALK tyrosine kinase receptor (Homo sapiens), Q9UM73 [L1196M]; conditions: Compound concentration 1000.0 nM
[21] = target: Casein kinase I isoform alpha-like (Homo sapiens) (UniProt Q8N752); conditions: Compound concentration 1000.0 nM
[22] = target: Serine/threonine-protein kinase MAK (Homo sapiens) (UniProt P20794); conditions: Compound concentration 1000.0 nM
Chain of Serine/threonine-protein kinase MAK (Homo sapiens) (P20794 whole entry): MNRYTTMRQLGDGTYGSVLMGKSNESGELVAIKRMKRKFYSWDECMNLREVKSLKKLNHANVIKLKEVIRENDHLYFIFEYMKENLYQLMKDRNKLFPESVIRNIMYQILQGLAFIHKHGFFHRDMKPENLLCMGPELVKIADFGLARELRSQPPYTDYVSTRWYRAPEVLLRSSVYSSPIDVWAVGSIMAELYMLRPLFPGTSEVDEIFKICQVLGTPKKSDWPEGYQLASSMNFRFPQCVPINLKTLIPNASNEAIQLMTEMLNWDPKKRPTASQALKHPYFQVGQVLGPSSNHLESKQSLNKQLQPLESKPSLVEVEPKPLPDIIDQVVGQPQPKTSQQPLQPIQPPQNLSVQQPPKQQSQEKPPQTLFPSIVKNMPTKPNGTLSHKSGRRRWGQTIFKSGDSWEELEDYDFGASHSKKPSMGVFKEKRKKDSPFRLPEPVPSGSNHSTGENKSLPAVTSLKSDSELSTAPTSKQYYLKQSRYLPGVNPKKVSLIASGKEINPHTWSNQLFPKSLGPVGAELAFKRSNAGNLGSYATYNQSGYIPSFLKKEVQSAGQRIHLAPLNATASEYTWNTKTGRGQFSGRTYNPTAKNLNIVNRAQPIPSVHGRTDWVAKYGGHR

[23] = target: T1, Muscarinic acetylcholine receptor M2 (Homo sapiens) (UniProt P08172); conditions: Compound concentration 10.0 uM
T1 sequence (whole entry): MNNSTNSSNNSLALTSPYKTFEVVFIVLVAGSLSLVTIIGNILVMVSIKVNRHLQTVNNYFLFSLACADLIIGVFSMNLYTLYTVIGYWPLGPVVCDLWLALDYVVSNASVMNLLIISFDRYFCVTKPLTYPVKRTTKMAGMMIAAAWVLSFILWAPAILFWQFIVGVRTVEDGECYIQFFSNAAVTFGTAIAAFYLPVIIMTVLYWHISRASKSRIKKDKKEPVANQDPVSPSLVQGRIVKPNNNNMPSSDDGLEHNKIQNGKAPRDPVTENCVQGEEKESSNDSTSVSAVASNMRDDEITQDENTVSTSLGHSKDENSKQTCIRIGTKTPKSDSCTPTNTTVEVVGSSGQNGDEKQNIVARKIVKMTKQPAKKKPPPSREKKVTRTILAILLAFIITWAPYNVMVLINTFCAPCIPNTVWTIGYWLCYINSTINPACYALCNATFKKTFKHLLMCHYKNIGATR

[24] = target: Myosin light chain kinase family member 4 (Homo sapiens) (UniProt Q86YV6); conditions: Compound concentration 1000.0 nM
[25] = target: Serine/threonine-protein kinase D2 (Homo sapiens) (UniProt Q9BZL6); conditions: Compound concentration 1000.0 nM
[26] = target: Serine/threonine-protein kinase 17A (Homo sapiens) (UniProt Q9UEE5); conditions: Compound concentration 1000.0 nM
[27] = target: Serine/threonine-protein kinase OSR1 (Homo sapiens) (UniProt O95747); conditions: Compound concentration 1000.0 nM
Chain of Serine/threonine-protein kinase OSR1 (Homo sapiens) (O95747 2-527 limits assumed): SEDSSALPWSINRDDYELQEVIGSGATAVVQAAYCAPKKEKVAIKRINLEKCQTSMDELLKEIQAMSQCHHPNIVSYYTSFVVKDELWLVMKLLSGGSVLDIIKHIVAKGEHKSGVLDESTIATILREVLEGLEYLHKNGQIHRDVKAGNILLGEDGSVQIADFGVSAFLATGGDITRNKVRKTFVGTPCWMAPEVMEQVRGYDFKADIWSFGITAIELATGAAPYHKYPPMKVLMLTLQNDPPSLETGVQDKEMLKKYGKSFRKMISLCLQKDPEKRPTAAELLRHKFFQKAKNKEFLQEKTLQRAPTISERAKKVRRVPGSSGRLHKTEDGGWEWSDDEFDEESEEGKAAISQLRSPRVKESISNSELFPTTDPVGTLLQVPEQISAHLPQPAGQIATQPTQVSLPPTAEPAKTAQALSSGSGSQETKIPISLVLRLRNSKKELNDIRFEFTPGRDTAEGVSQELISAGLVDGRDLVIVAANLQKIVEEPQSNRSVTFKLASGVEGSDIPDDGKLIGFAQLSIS

[28] = target: Calcium/calmodulin-dependent protein kinase type IV (Homo sapiens) (UniProt Q16566); conditions: Compound concentration 1000.0 nM
Chain of Calcium/calmodulin-dependent protein kinase type IV (Homo sapiens) (Q16566 whole entry): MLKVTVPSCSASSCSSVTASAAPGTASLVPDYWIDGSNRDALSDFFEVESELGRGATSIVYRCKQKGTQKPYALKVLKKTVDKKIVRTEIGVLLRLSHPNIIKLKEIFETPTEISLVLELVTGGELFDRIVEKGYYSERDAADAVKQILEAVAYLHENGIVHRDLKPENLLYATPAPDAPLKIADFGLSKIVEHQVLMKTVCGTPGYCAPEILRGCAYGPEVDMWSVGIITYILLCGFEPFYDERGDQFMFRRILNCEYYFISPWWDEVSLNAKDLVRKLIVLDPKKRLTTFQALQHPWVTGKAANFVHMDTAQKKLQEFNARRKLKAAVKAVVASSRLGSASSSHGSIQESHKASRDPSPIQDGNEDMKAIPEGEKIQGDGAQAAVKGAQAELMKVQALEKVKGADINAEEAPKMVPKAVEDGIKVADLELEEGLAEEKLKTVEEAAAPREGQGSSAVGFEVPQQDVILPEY

[29] = test system: Receptor-type tyrosine-protein kinase FLT3 (Homo sapiens), P36888 [N841I]; conditions: Compound concentration 1000.0 nM
[30] = target: Serine/threonine-protein kinase ULK2 (Homo sapiens) (UniProt Q8IYT8); conditions: Compound concentration 1000.0 nM
[31] = target: T2, Muscarinic acetylcholine receptor M1 (Homo sapiens) (UniProt P11229); conditions: Compound concentration 10.0 uM
T2 sequence (whole entry): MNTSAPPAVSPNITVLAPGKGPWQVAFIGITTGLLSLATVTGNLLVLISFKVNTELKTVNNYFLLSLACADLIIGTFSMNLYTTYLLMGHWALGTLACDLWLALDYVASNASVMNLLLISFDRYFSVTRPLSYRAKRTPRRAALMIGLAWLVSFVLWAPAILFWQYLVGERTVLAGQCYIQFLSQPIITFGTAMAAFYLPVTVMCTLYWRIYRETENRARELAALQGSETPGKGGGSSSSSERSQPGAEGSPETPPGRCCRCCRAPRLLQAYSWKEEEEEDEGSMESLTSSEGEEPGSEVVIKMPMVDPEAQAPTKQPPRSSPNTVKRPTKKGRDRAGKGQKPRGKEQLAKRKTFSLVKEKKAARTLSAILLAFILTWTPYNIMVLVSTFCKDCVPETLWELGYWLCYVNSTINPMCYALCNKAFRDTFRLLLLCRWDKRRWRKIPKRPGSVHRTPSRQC

[32] = test system: Mast/stem cell growth factor receptor Kit (Homo sapiens), P10721 [D816V]; conditions: Compound concentration 1000.0 nM
Chain of Mast/stem cell growth factor receptor Kit (Homo sapiens), P10721 [D816V] (P10721 whole entry D816V): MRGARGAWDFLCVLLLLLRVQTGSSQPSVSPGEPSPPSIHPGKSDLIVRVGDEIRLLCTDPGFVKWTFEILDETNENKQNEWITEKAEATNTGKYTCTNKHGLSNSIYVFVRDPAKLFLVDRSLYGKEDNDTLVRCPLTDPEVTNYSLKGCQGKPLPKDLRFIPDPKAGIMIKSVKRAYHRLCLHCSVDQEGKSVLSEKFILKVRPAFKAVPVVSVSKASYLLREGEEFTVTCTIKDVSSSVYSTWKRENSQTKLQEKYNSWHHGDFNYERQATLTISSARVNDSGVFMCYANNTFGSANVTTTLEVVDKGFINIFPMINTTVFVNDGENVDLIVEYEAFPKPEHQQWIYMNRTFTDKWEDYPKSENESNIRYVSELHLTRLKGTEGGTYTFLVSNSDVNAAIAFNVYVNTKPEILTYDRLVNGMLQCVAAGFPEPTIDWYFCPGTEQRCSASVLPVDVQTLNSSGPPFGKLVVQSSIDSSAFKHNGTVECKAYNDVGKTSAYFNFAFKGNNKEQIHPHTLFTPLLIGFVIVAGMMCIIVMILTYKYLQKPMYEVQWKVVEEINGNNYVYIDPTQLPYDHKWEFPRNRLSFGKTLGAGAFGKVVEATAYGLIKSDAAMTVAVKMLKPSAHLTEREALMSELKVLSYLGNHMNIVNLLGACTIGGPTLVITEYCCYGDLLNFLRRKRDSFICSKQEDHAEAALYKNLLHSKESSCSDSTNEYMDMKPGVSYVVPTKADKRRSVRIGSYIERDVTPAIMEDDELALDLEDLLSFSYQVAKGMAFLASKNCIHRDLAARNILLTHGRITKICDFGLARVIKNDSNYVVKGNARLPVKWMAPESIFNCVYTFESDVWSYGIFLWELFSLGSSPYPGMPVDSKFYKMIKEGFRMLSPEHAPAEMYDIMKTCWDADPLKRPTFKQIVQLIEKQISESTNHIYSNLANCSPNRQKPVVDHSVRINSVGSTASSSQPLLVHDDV

Chain of Mast/stem cell growth factor receptor Kit (Homo sapiens), P10721 [A829P] (P10721 whole entry A829P): as the sequence (P10721 whole entry D816V) above, with V816D, A829P counted along it

SMILES | residual activity [1] | residual activity [2] | residual activity [3] | residual activity [4] | residual activity [5] | residual activity [6] | residual activity [7] | residual activity [8] | residual activity [9] | inhibition [10] | residual activity [11] | residual activity [12] | residual activity [13] | residual activity [14] | inhibition [15] | residual activity [16] | residual activity [17] | residual activity [18] | residual activity [19] | residual activity [20] | further results
FC(F)(F)c1ccc2c(c1)nc(-c1cccnc1)n2C1CC1 [MSD-CYP11B2-Negative-control] | 65% | 100% | 100% | 100% | 96% | 100% | 100% | 100% | 100% | -1.88% | 100% | 100% | 100% | 100% | 16.9% | 100% | 100% | 89% | 100% | 100% | residual activity [21]: 100%; residual activity [22]: 100%; inhibition [23]: 2.99%; residual activity [24]: 100%; residual activity [25]: 100%; residual activity [26]: 100%; residual activity [27]: 100%; residual activity [28]: 100%; residual activity [29]: 100%; residual activity [30]: 100%; inhibition [31]: -7.11%; residual activity [32]: 100%
CC(C)(O)c1cncc(-c2nc3ccc(F)cc3n2C2CC2)c1 [MSD-CYP11B2] | 84% | 100% | 48% | 100% | 100% | 100% | 100% | 100% | 100% | 16.7% | 100% | 77% | 100% | 100% | 27.7% | 92% | 100% | 100% | 100% | 100% | residual activity [21]: 100%; residual activity [22]: 100%; inhibition [23]: -0.1%; residual activity [24]: 100%; residual activity [25]: 100%; residual activity [26]: 94%; residual activity [27]: 100%; residual activity [28]: 100%; residual activity [29]: 100%; residual activity [30]: 100%; inhibition [31]: -4.49%; residual activity [32]: 100%
